In publication PMC12068008 (International Journal of Molecular Sciences, 2024):
Several values for one entry are separate records, joined by “and”; a condition that tells them apart may be missing. Identical values can stand only once.

Columns and labels:
[1] = DPPH radical scavenging assay; conditions: 30 min incubation, 25 °C
Method: DPPH (2,2-diphenyl-1-picrylhydrazyl) radical scavenging assay was used to assess free-radical scavenging activity of synthesized compounds. Initially, 1 × 10^−4 M working solution of DPPH was prepared, and 350 µL was added to 350 µL of the solution of each compound. The final concentrations of the compounds (Q, 2a, and 2b) in the samples were 1 × 10^−3 M, 1 × 10^−4 M, and 1 × 10^−5 M. The control included ethanol only and DPPH–ethanol solution without compounds. The mixtures were incubated at 25 °C in the dark for 30 min. After incubation, the absorbance of the samples at 517 nm was measured in duplicate by using a UV/Vis spectrophotometer (Lambda 35, Perkin Elmer, Waltham, MA, USA). The DPPH radical scavenging ability was calculated using the following equation:(1) Antioxidative activity(%)=Acontrol−Asample/Acontrol×100% where Asample and Acontrol represent the absorbance at 517 nm of the sample and control, respectively. All samples were analysed in duplicate.

[2] = tested on: HeLa cells; experiment: SRB assay, HeLa cells; format: cell-based; conditions: for IC50: Homo sapiens, HeLa, 72 h after treatment, SRB, read-out: IC50 HeLa; for Viability of HeLa cells: % of control, concentrations 1 × 10^−6 to 1 × 10^−4 M (not assigned to the values for 2a)
Method: All cell lines were cultured in Dulbecco’s Modified Eagle’s Medium (DMEM) with 4500 mg/L glucose and L-glutamine (Capricorn Scientific, Ebsdorfergrund, Germany), supplemented with 10% foetal bovine serum (PAN-Biotech, Aidenbach, Germany), 10,000 U/mL penicillin, and 10 mg/mL streptomycin solution (Capricorn Scientific) under standard conditions at 37 °C in a humidified 5% CO2 atmosphere (ESCO, Lifesciences Group, Singapore).
Cells were seeded on a 96-well plate (Thermo Fisher Scientific, Waltham, MA, USA) at 2 × 10^3 cells per well in DMEM medium. For the analysis of the concentration- and time-dependent effect of the analysed compounds, cell monolayers were treated 24 h after seeding with concentrations 1 × 10^−6, 1 × 10^−5, and 1 × 10^−4 M for 24, 48, or 72 h. Cell viability was detected using sulforhodamine B (SRB) assay, based on the staining of cellular proteins. The assay was performed according to the procedure described by Skehan et al.. The cells were fixed with 10% trichloroacetic acid (TCA, CARLO ERBA Reagents GmbH, Emmendingen, Germany) for 1 h at 4 °C, washed with water, and stained for 15 min with 0.4% SRB (Sigma-Aldrich Chemie GmbH, Steinheim, Germany) in 1% acetic acid. The unbound SRB dye was rinsed with 1% acetic acid, while the protein-bound dye was extracted with a 10 mM Tris base (Sigma-Aldrich). […] The results were expressed as a percentage of the control, where the cell growth of the control is set to 100%. […] The selectivity index (SI) was determined according to the following formula:(2) SI=IC50 for fibroblast cell line/IC50 for tumour cell line
The assay was performed two times in 4 replicates for every experimental group. The statistical significance of differences between treated and untreated cells was estimated by the independent Student’s t-test, with the level of significance set at p < 0.05.

[3] = physchem; format: physicochemical; conditions: n-octanol/deionized water, shake flask, 25 °C, 1 × 10^−4 M, read-out: logP, experimentally obtained
Method: To measure the lipophilicity (expressed as the partition coefficient) of the synthesized compounds and their constituents, using a “shake-flask” method, a two-phase system composed of n-octanol and deionized water was used. The stock solutions of the compounds were diluted with water to the concentration of 1 × 10^−4 M, and this solution was used for further investigation. […] The concentration of the compounds was calculated from their extinction coefficient at 260 nm that was previously determined.

[4] = Metal-chelating assay, binding stoichiometry (molar ratio method), Cu2+; format: physicochemical; conditions: ethanol, 30 min, compound 5 × 10^−5 M, one ion coordinates with two molecules
Method: Binding stoichiometry was determined using the molar ratio method, with increasing concentrations of metal ions (from 0 to 1.5 × 10^−4 M) (Figures S1 and S2). Absorption spectra were collected 30 min after mixing. The change in absorption at the wavelength of maximum absorbance for the formed complex was plotted against the metal ion (M^2+ = Cu^2+, Zn^2+, and Fe^2+) to compound ratio (cM^2+/ccompound) and is presented in Figure 3. This graph allows the determination of the binding ratio between the newly synthesized compounds and metal ions. […] In contrast, the results for Fe^2+ indicate that only one Fe^2+ ion can bind to both compounds.
The metal-chelating ability of synthesized compounds in ethanol was assessed using UV/Vis spectrophotometer (Lambda 35, Perkin Elmer) recording spectra over a wavelength range of 230–600 nm in a 1 cm quartz cell. The mixture of compound at 5 × 10^−5 M of final concentration and metal ions at 1 × 10^−4 M of final concentration was incubated for 30 min at room temperature. The tested temperature was 25 °C. […]
The binding stoichiometry was assessed by adding increasing concentrations of metal ions (0–1.5 × 10^−4 M) to a fixed concentration of compound (5 × 10^−5 M) and incubating the mixture for 30 min at room temperature. The spectra were then measured as described above, and the ligand-to-metal chelation ratio in the complex was calculated.

Row | SMILES | IC50 [1] [µM] | IC50 [2] [µM] | logP at 30 min [3] | binding stoichiometry Cu^2+ [4] | Viability of HeLa cells ([2]; 48 h) | Viability of HeLa cells ([2]; 72 h)
1 | COc1cc2c(cc1OC)CN(Cc1c(O)cc(O)c3c(=O)c(O)c(-c4ccc(O)c(O)c4)oc13)CC2 [Compound 2b] | 10.2 | 19.5 ± 0.97 | 2.47 | 2 | – | –
2 | O=c1c(O)c(-c2ccc(O)c(O)c2)oc2c(CN3CCc4ccccc4C3)c(O)cc(O)c12 [Compound 2a] | 1.59 | 53.5 ± 2.67 | 3.07 | 2 | 43% and 37% | 35% and 29%
